Test results as given in patent US12351648B2, “Methods of inhibiting MASP-2 for the treatment and/or prevention of coronavirus-induced acute respiratory distress syndrome” (priority 2020, dated 2025).
Where two headings read alike, the source gives them in different places. Non-standard residues stand in square brackets, D forms with d. Residues, ends and D or L forms follow the SMILES beside them. *: point of attachment. dChg = N[C@@H](C(=O)O)C1CCCCC1; Agmatine = N=C(N)NCCCCN*; Aze = O=C(O)[C@@H]1CCN1

Experiments:
mMASP-2 [1] = molecular target: T1, mMASP-2 (Mus musculus (Mouse), UniProt Q91WP0); assay: Enzymatic assay for mMASP-2 (Ki); format: biochemical
T1 sequence (Q91WP0 20-685): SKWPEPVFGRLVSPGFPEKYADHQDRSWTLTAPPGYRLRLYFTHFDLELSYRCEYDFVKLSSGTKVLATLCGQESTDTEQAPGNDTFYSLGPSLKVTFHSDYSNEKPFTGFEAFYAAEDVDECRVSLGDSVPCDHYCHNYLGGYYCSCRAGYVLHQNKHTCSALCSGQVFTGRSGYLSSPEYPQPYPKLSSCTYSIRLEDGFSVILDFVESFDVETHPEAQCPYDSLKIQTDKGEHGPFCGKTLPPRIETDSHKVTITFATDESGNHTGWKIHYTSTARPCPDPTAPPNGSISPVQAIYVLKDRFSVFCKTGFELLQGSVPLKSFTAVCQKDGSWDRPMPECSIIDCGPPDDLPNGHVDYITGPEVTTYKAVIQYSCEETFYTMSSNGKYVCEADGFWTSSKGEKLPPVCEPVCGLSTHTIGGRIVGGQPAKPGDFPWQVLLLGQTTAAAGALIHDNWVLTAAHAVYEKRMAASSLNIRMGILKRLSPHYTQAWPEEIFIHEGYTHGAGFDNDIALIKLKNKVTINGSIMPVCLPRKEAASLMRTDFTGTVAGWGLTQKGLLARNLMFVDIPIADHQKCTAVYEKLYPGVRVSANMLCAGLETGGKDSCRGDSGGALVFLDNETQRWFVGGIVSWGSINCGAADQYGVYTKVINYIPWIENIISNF

lectin pathway = assay: Lectin pathway activation assay in 1% human serum (C3 deposition on mannan, ELISA); format: biochemical
mMASP-2 [2] = molecular target: T1, mMASP-2; assay: Enzymatic assay for mMASP-2 (Ki); format: biochemical; remark: listed apart in the source
MASP-2 (CCP1-CCP2-SP) = MASP-2 (CCP1-CCP2-SP) (Homo sapiens (Human), UniProt O00187); assay: Enzymatic assay for MASP-2 (fluorogenic substrate); format: biochemical; details: for MASP-2 vs. thrombin selectivity: MASP-2 inhibition versus thrombin
MASP-2 (CCP1-CCP2-SP), sequence (O00187 287-686): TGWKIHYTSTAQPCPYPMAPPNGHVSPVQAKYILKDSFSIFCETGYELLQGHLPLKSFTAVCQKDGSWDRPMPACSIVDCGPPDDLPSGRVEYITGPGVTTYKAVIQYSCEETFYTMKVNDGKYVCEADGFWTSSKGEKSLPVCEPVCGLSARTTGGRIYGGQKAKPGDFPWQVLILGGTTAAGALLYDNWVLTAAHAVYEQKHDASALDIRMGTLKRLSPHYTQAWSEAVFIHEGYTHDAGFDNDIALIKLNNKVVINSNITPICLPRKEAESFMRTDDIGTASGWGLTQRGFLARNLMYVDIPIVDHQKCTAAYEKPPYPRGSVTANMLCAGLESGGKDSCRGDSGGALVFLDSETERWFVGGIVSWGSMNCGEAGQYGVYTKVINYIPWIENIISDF

human α-thrombin = human α-thrombin (Homo sapiens (Human), UniProt P00734); assay: Enzymatic assay for thrombin (Boc-VPR-AMC); format: biochemical
COVID-19 patients = details: cited from earlier work; for 28-day mortality: […] with usual care
[3] = human α-thrombin, Boc-VPR-AMC, read-out: Thrombin Ki
[4] = Thrombin Ki, human α-thrombin, Boc-VPR-AMC
[5] = oxygen support without invasive mechanical ventilation

## Cc1nc(N)ccc1CNC(=O)[C@H](C)NC(=O)[C@H]1C[C@@H](c2ccccc2)CCN1CC(=O)O [Compound 1398]
mMASP-2 [1]
  Ki: < 500 nM

## C[C@H](NC(=O)C1CC(c2ccccc2)CCN1)C(=O)NCc1ccc(C(=N)N)cc1 (stereo partly drawn) [Compound 1065]
Lectin pathway; read-out: Lectin Pathway IC50
  IC50: < 50 nM
mMASP-2 [2]
  Ki: < 500 nM

## C[C@H](NC(=O)[C@@H](CCc1ccccc1)NC1CCCCC1)C(=O)NCc1ccc(C(=N)N)cc1 [Compound 1130]
MASP-2 (CCP1-CCP2-SP)
  MASP-2 vs. thrombin selectivity: — (less than 1.0-fold)

## CCOC(=O)COc1ccc(Cl)cc1CNC(=O)[C@H](C)NC(=O)[C@H](N)CCc1ccccc1 [Compound 1229]
Human α-thrombin; [3]
  Ki: < 10 µM

## CCCCOC(=O)NC(=N)c1ccc(CNC(=O)[C@H](C)NC(=O)[C@H]2C[C@H](c3ccccc3)CN2)cc1 [Compound 1260]
MASP-2 (CCP1-CCP2-SP); MASP-2 Ki (μM)
  Ki: 2.5 to 10 µM
Human α-thrombin; Thrombin Ki (μM)
  Ki: > 25 µM

## C[C@H](NC(=O)[C@@H](CCc1ccccc1)NCc1cc2ccccc2[nH]1)C(=O)NCc1ccc(C(=N)N)cc1 [Compound 1143]
MASP-2 (CCP1-CCP2-SP)
  MASP-2 vs. thrombin selectivity: — (less than 1.0-fold)
MASP-2 (CCP1-CCP2-SP); read-out: MASP-2 Ki
  Ki: < 0.5 µM
Human α-thrombin; [3]
  Ki: < 0.5 µM
mMASP-2 [2]
  Ki: < 500 nM

## C[C@H](NC(=O)[C@H]1C[C@H](Cc2ccccc2)CN1)C(=O)NCc1cnc2[nH]cc(Cl)c2c1 [Compound 1334]
MASP-2 (CCP1-CCP2-SP)
  MASP-2 vs. thrombin selectivity: — (<1.0-fold)

## Cc1nc(N)ccc1CNC(=O)[C@@H](C)NC(=O)[C@H]1C[C@H](c2cccc(-c3ccccc3)c2)CN1 [Compound 1359]
Human α-thrombin; Thrombin Ki (μM)
  Ki: > 25 µM
mMASP-2 [1]
  Ki: 10000 to 25000 nM

## Cc1nc(N)ccc1CNC(=O)[C@H](C)NC(=O)[C@H]1C[C@H](Cc2ccc3ccccc3c2)CN1 [Compound 1338]
MASP-2 (CCP1-CCP2-SP)
  MASP-2 vs. thrombin selectivity: *** (≥25 to <100-fold)

## C[C@H](NC(=O)C1CC(c2ccccc2)CCN1)C(=O)NCc1ccc(N)nc1 (stereo partly drawn) [Compound 1025]
Lectin pathway; read-out: Lectin Pathway IC50
  IC50: 500 to 5000 nM
Human α-thrombin; [4]
  Ki: > 25 µM

## C[C@H](NC(=O)[C@@H](CCc1ccccc1)NCc1ccc(F)cc1)C(=O)NCc1ccc(C(=N)N)cc1 [Compound 1141]
MASP-2 (CCP1-CCP2-SP)
  MASP-2 vs. thrombin selectivity: — (less than 1.0-fold)
MASP-2 (CCP1-CCP2-SP); read-out: MASP-2 Ki
  Ki: < 0.5 µM
Human α-thrombin; [3]
  Ki: < 0.5 µM

## C[C@H](NC(=O)[C@H](N)CCc1ccccc1)C(=O)NCc1ccc(C(=N)N)cc1 [Compound 1218]
MASP-2 (CCP1-CCP2-SP)
  MASP-2 vs. thrombin selectivity: — (less than 1.0-fold)

## COC(=O)CCCCCN[C@H](CCc1ccccc1)C(=O)N[C@@H](C)C(=O)NCc1ccc(C(=N)N)cc1 [Compound 1142]
MASP-2 (CCP1-CCP2-SP)
  MASP-2 vs. thrombin selectivity: * (1.0 to 5.0-fold)
MASP-2 (CCP1-CCP2-SP); read-out: MASP-2 Ki
  Ki: < 0.5 µM
Human α-thrombin; [3]
  Ki: < 0.5 µM

## N=C(N)c1ccc(CNC(=O)Cn2c(=O)n(Cc3ccccc3)c(=O)c3ccc(C(=O)NC4CCCCC4)cc32)cc1 [Compound 2021]
Lectin pathway; read-out: Lectin Ki (Lectin Pathway Inhibition, IC50)
  IC50: 5000 to 50000 nM

## C[C@H](NC(=O)[C@H](N)CCc1ccccc1)C(=O)NCc1cc(Cl)ccc1-n1cnnn1 [Compound 1325]
MASP-2 (CCP1-CCP2-SP)
  MASP-2 vs. thrombin selectivity: — (<1.0-fold)

## CC[C@H](NC(=O)[C@H](N)CCc1ccccc1)C(=O)NCc1ccc(C(=N)N)cc1 [Compound 1289]
MASP-2 (CCP1-CCP2-SP)
  MASP-2 vs. thrombin selectivity: — (<1.0-fold)

## N=C(N)c1ccc(CNC(=O)[C@@H]2CCCN2C(=O)[C@H](N)C2CCCCC2)cc1 [Compound 1027]
MASP-2 (CCP1-CCP2-SP)
  MASP-2 vs. thrombin selectivity: — (less than 1.0-fold)

## C[C@H](NC(=O)[C@H]1CCc2ccccc2N1)C(=O)NCc1ccc(C(=N)N)cc1 [Compound 1215]
mMASP-2 [2]
  Ki: < 25000 nM

## C[C@@H]1C[C@H]2[C@@H]3CCC4=CC(=O)C=C[C@]4(C)[C@@]3(F)[C@@H](O)C[C@]2(C)[C@@]1(O)C(=O)CO [dexamethasone]
COVID-19 patients; invasive mechanical ventilation
  28-day mortality: 29.0%
COVID-19 patients; no respiratory support at randomization
  28-day mortality: 17.0%
COVID-19 patients; [5]
  28-day mortality: 21.5%
  Reduction of 28-day mortality: 14%
COVID-19 patients; patients on invasive mechanical ventilation
  Reduction of 28-day mortality: 28.7%

## C[C@H](NC(=O)[C@H](N)CCc1ccccc1)C(=O)NCc1ccc2nc(N)[nH]c2c1 [Compound 1040]
MASP-2 (CCP1-CCP2-SP)
  MASP-2 vs. thrombin selectivity: **** (>100-fold)
MASP-2 (CCP1-CCP2-SP); read-out: MASP-2 Ki
  Ki: < 0.5 µM
Lectin pathway; read-out: Lectin Pathway IC50
  IC50: 500 to 5000 nM
Human α-thrombin; [4]
  Ki: > 25 µM
mMASP-2 [2]
  Ki: < 500 nM

## C[C@H](NC(=O)[C@@H](CCc1ccccc1)NCc1ccc(O)cc1)C(=O)NCc1ccc(C(=N)N)cc1 [Compound 1140]
MASP-2 (CCP1-CCP2-SP)
  MASP-2 vs. thrombin selectivity: — (less than 1.0-fold)

## Cc1nc(N)ccc1CNC(=O)[C@H](C)NC(=O)[C@H]1C[C@H](c2cccc(-c3ccccc3)c2)CN1 [Compound 1360]
Lectin pathway; read-out: Lectin Pathway IC50
  IC50: 50 to 500 nM
Human α-thrombin; Thrombin Ki (μM)
  Ki: > 25 µM
mMASP-2 [1]
  Ki: < 500 nM

## Cc1nc(N)ccc1CNC(=O)[C@H](C)NC(=O)[C@H]1CC(Cc2ccc(F)cc2)(Cc2ccc(F)cc2)CN1 [Compound 1480]
mMASP-2 [1]
  Ki: < 500 nM

## N=C(N)NCCCCNC(=O)[C@@H]1CCN1C(=O)[C@H](N)C1CCCCC1 [Compound 1006] (H-[dChg]-[Aze]-Agmatine)
MASP-2 (CCP1-CCP2-SP)
  MASP-2 vs. thrombin selectivity: — (less than 1.0-fold)

## C[C@H](NC(=O)[C@H]1C[C@H](Cc2cccc3ccccc23)CN1)C(=O)NCc1cc(Cl)ccc1-n1cnnn1 [Compound 1414]
MASP-2 (CCP1-CCP2-SP)
  MASP-2 vs. thrombin selectivity: — (<1.0-fold)

## C[C@H](NC(=O)[C@H](N)CCc1ccc(F)cc1)C(=O)NCc1ccc(C(=N)N)cc1 [Compound 1047]
Human α-thrombin; [3]
  Ki: < 2.5 µM

## N=C(N)c1ccc2[nH]c(Cc3nc4ccccc4[nH]3)nc2c1 [Compound 2015]
MASP-2 (CCP1-CCP2-SP); MASP-2 Ki (μM), −Zn
  Ki: < 10 µM
